# Earlier results, collected in US6641611B2, “Therapeutic coating for an intravascular implant” (priority 2001, dated 2003).
# Where two headings read alike, the source gives them in different places.
# Experiments:
# [1] = for diabetes: high doses
structure (smiles),measurement,setting,value
CO[C@H]1C[C@@H]2CC[C@@H](C)[C@@](O)(O2)C(=O)C(=O)N2CCCC[C@H]2C(=O)O[C@H]([C@H](C)C[C@@H]2CC[C@@H](O)[C@H](OC)C2)CC(=O)[C@H](C)/C=C(\C)[C@@H](O)[C@@H](OC)C(=O)[C@H](C)C[C@H](C)/C=C/C=C/C=C/1C [rapamycin],tolerability,fixed high dose monotherapy,well tolerated
same,increase in rapamycin levels in combination compared to rapamycin alone,"monkeys, fixed doses of both drugs in combination",5 fold
same,diabetes,[1]; nonhuman primates,not
same,diabetes,[1]; rats,causes diabetes
same,body weight effect,[1]; several species,weight loss
